The target in experiment [1] is KRAS G12C (Homo sapiens, UniProt P01116, G12C). As to the kind of experiment: GDP-GTP exchange assay (fluorescence based guanine nucleotide exchange, bodipy-GDP for GppNHp, SOS1). The experiment is classed as biochemical. The note with it: bodipy-loaded KRAS G12C, 2 hours pre-incubation with inhibitor, read-out: G12C_exchange (KRAS_G12C exchange assay IC50). The protocol: The inhibitor potency of the exemplified compounds was determined in a fluorescence based guanine nucleotide exchange assay, which measures the exchange of bodipy-GDP (fluorescently labeled GDP) for GppNHp (Non-hydrolyzable GTP analog) to generate the active state of KRAS in the presence of SOS1 (guanine nucleotide exchange factor). Inhibitors were serially diluted in DMSO and a volume of 0.1 μL was transferred to the wells of a black low volume 384-well plate. 5 μL/well volume of bodipy-loaded KRAS G12C diluted to 5 nM in assay buffer (25 mM Hepes pH 7.5, 50 mM NaCl, 10 mM MgCl2 and 0.01% Brij-35) was added to the plate and pre-incubated with inhibitor for 2 hours at ambient temperature. Appropriate controls (enzyme with no inhibitor or with a G12C inhibitor (AMG-510)) were included on the plate. The exchange was initiated by the addition of a 5 μL/well volume containing 1 mM GppNHp and 300 nM SOS1 in assay buffer. The 10 μL/well reaction concentration of the bodipy-loaded KRAS G12C, GppNHp, and SOS1 were 5-25 nM, 500 uM, and 150 nM, respectively. The reaction plates were incubated at ambient temperature for 2 hours, a time estimated for complete GDP-GTP exchange in the absence of inhibitor. For the KRAS G12D and G12V mutants, similar guanine nucleotide exchange assays were used with 2.5 nM as final concentration for the bodipy loaded KRAS proteins and with 4 hours and 3 hours incubation after adding GppNHp-SOS1 mixture for G12D and G12V, respectively. A cyclic peptide described to selectively bind G12D mutant (Sakamoto et al., BBRC 484.3 (2017), 605-611) or internal compounds with confirmed binding were used as positive controls in the assay plates. Fluorescence intensities were measured on a PheraStar plate reader instrument (BMG Labtech) with excitation at 485 nm and emission at 520 nm.
Either GraphPad prism or XLfit was used to analyze the data. The IC50 values were derived by fitting the data to a four parameter logistic equation producing a sigmoidal dose-response curve with a variable Hill coefficient. Prism equation: Y=Bottom+(Top−Bottom)/(1+10^((Log IC50−X)*Hill slope)); XLfit equation: Y=(A+((B−A)/(1+((X/C)^D)))) where X is the logarithm of inhibitor concentration and Y is the response.

The subject of experiment [2] is MIA PaCa-2 (KRAS G12C) cells. Kind of experiment: Cellular pERK HTRF assay. It is filed as cell-based. The note with it: Homo sapiens; MIA PaCa-2 cells, 4 hours, phospho-ERK 1/2 HTRF; read-out: G12C_pERK (KRAS_G12C pERK assay IC50). The protocol:
MIA PaCa-2 (KRAS G12C; ATCC® CRL-1420), A427 (KRAS G12D; ATCC® HTB53), HPAF-II (KRAS G12D; ATCC® CRL-1997) and NCI-H838 (KRAS WT; ATCC® CRL-5844) cells are purchased from ATCC and maintained in RPMI 1640 media supplemented with 10% FBS (Gibco/Life Technologies). The cells are plated at 5000 cells per well (8 uL) into Greiner 384-well low volume, flat-bottom, tissue culture treated white plates and incubated overnight at 37° C. 5% CO2. The next morning, test compound stock solutions are diluted in media at 3× the final concentration, and 4 uL are added to the cells. The plate is mixed by gentle rotation for 30 seconds (250 rpm) at room temperature. The cells are incubated with the KRAS G12C and G12D compounds for 4 hours or 2 hours respectively at 37° C., 5% CO2.
4 uL of 4× lysis buffer with blocking reagent (1:25) (Cisbio) are added to each well and plates are rotated gently (300 rpm) for 30 minutes at room temperature. 4 uL per well of Cisbio anti Phospho-ERK 1/2 d2 is mixed with anti Phospho-ERK 1/2 Cryptate (1:1) are added to each well, mixed by rotation and incubated overnight in the dark at room temperature. Plates are read on the Pherastar plate reader at 665 nm and 620 nm wavelengths. IC50 determination is performed by fitting the curve of inhibitor percent inhibition versus the log of the inhibitor concentration using the GraphPad Prism 7 software.

KRAS G12C, sequence (P01116 1-188 isoform P01116-2 G12C): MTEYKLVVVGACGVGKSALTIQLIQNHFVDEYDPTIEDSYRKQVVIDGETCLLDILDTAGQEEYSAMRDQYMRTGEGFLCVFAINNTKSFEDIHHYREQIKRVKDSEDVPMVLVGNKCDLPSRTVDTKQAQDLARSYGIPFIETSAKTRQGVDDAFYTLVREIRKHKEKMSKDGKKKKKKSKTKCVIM

In the case of `C=CC(=O)N1CC(F)(Cn2c(=O)c(=O)n(-c3c(C(C)C)cccc3C(C)C)c3nc(-c4c(O)cccc4F)c(Cl)cc32)C1` [Example 12, 1-((1-acryloyl-3-fluoroazetidin-3-yl)methyl)-7-chloro-4-(2,6-diisopropylphenyl)-6-(2-fluoro-6-hydroxyphenyl)-1,4-dihydropyrido[2,3-b]pyrazine-2,3-dione], the IC50 in experiment [1] and in experiment [2] was ≤ 100 nM in each case.

For `C=CC(=O)N1CC(F)(Cn2c(=O)c(=O)n(-c3c(C)ccnc3C(C)C)c3nc(-c4c(O)cc(C)cc4F)c(Cl)cc32)C1` [Example 20, 1-((1-acryloyl-3-fluoroazetidin-3-yl)methyl)-7-chloro-6-(2-fluoro-6-hydroxy-4-methylphenyl)-4-(2-isopropyl-4-methylpyridin-3-yl)-1,4-dihydropyrido[2,3-b]pyrazine-2,3-dione], the IC50 in experiment [1] and in experiment [2] was ≤ 100 nM in each case. For `C=CC(=O)N1CC(F)(Cn2c(=O)c(=O)n(-c3c(C)ccnc3C(C)C)c3nc(-c4c(N)cccc4F)c(Cl)cc32)C1` [Example 19, 1-((1-acryloyl-3-fluoroazetidin-3-yl)methyl)-6-(2-amino-6-fluorophenyl)-7-chloro-4-(2-isopropyl-4-methylpyridin-3-yl)-1,4-dihydropyrido[2,3-b]pyrazine-2,3-dione], the half-maximal inhibitory concentration (IC50) in experiment [1] and in experiment [2] was ≤ 100 nM in each case. On to `C=CC(=O)N1CC(F)(Cn2c(=O)c(=O)n(-c3c(C)ccnc3C(C)C)c3nc(-c4c(F)ccc(F)c4O)c(Cl)cc32)C1` [Example 22, 1-((1-acryloyl-3-fluoroazetidin-3-yl)methyl)-7-chloro-6-(3,6-difluoro-2-hydroxyphenyl)-4-(2-isopropyl-4-methylpyridin-3-yl)-1,4-dihydropyrido[2,3-b]pyrazine-2,3-dione], for which the IC50 in experiment [1] and in experiment [2] was ≤ 100 nM each time. In the case of `C=CC(=O)N1CC(F)(Cn2c(=O)c(=O)n(-c3c(C(C)C)cccc3C(C)C)c3nc(-c4c(N)cccc4F)c(Cl)cc32)C1` [Example 15, 1-((1-acryloyl-3-fluoroazetidin-3-yl)methyl)-6-(2-amino-6-fluorophenyl)-7-chloro-4-(2,6-diisopropylphenyl)-1,4-dihydropyrido[2,3-b]pyrazine-2,3-dione], the IC50 in experiment [1] and in experiment [2] was ≤ 100 nM in each case.

In the case of `C=CC(=O)N1CC(F)(Cn2c(=O)c(=O)n(-c3c(C)ccnc3C(C)C)c3nc(-c4c(O)ccc(F)c4F)c(Cl)cc32)C1` [Example 23, 1-((1-acryloyl-3-fluoroazetidin-3-yl)methyl)-7-chloro-6-(2,3-difluoro-6-hydroxyphenyl)-4-(2-isopropyl-4-methylpyridin-3-yl)-1,4-dihydropyrido[2,3-b]pyrazine-2,3-dione], the IC50 in experiment [1] and in experiment [2] was ≤ 100 nM in each case.

Take `C=CC(=O)N1CC(F)(Cn2c(=O)c(=O)n(-c3c(C(C)C)cccc3C(C)C)c3nc(-c4cccc5ccccc45)c(Cl)cc32)C1` [Example 11, 1-((1-acryloyl-3-fluoroazetidin-3-yl)methyl)-7-chloro-6-(1-naphthyl)-4-(2,6-diisopropylphenyl)-1,4-dihydropyrido[2,3-b]pyrazine-2,3-dione]: the half-maximal inhibitory concentration (IC50) (usually the concentration needed to halve the response being measured) in experiment [1] was ≤ 100 nM; in experiment [2], 100 to 1000 nM. In the same order, the values of `C=CC(=O)N1CC(F)(Cn2c(=O)c(=O)n(-c3c(C)ccnc3C(C)C)c3nc(-c4c(F)ccc(C)c4O)c(Cl)cc32)C1` [Example 21, 1-((1-acryloyl-3-fluoroazetidin-3-yl)methyl)-7-chloro-6-(6-fluoro-2-hydroxy-3-methylphenyl)-4-(2-isopropyl-4-methylpyridin-3-yl)-1,4-dihydropyrido[2,3-b]pyrazine-2,3-dione] are ≤ 100 nM and ≤ 100 nM. Take `[2H]C([2H])(n1c(=O)c(=O)n(-c2c(C)ccnc2C(C)C)c2nc(-c3c(F)ccc(C)c3O)c(Cl)cc21)C1(F)CN(C(=O)C=C)C1` [Example 47, 1-((1-acryloyl-3-fluoroazetidin-3-yl)methyl-d2)-7-chloro-6-(6-fluoro-2-hydroxy-3-methylphenyl)-4-(2-isopropyl-4-methylpyridin-3-yl)-1,4-dihydropyrido[2,3-b]pyrazine-2,3-dione]: the IC50 in experiment [1] and in experiment [2] was ≤ 100 nM each time.

Take `C=CC(=O)N1CC(F)(Cn2c(=O)c(=O)n(-c3c(C)ccnc3C(C)C)c3nc(-c4c(F)ccc(Cl)c4O)c(Cl)cc32)C1` [Example 24, 1-((1-acryloyl-3-fluoroazetidin-3-yl)methyl)-7-chloro-6-(3-chloro-6-fluoro-2-hydroxyphenyl)-4-(2-isopropyl-4-methylpyridin-3-yl)-1,4-dihydropyrido[2,3-b]pyrazine-2,3-dione]: the IC50 in experiment [1] and in experiment [2] was ≤ 100 nM in each case.

On to `C=CC(=O)N1CC(Cn2c(=O)c(=O)n(-c3c(C(C)C)cccc3C(C)C)c3nc(-c4cccc(F)c4F)c(Cl)cc32)C1` [Example 5, 1-((1-acryloylazetidin-3-yl)methyl)-7-chloro-4-(2,6-diisopropylphenyl)-6-(2,3-difluorophenyl)-1,4-dihydropyrido[2,3-b]pyrazine-2,3-dione], for which the 50% inhibitory concentration (IC50) is ≤ 100 nM in experiment [1] and 100 to 1000 nM in experiment [2]. In the same order, the values of `C=CC(=O)N1CC(F)(Cn2c(=O)c(=O)n(-c3c(C)ccnc3C(C)C)c3nc(-c4ccccc4F)c(Cl)cc32)C1` [Example 18, 1-((1-acryloyl-3-fluoroazetidin-3-yl)methyl)-7-chloro-6-(2-fluorophenyl)-4-(2-isopropyl-4-methylpyridin-3-yl)-1,4-dihydropyrido[2,3-b]pyrazine-2,3-dione] are ≤ 100 nM and ≤ 100 nM. On to `C=CC(=O)N1CC(O)(Cn2c(=O)c(=O)n(-c3c(C)ccnc3C(C)C)c3nc(-c4c(O)cccc4F)c(Cl)cc32)C1` [Example 42, 1-((1-acryloyl-3-hydroxyazetidin-3-yl)methyl)-7-chloro-6-(2-fluoro-6-hydroxyphenyl)-4-(2-isopropyl-4-methylpyridin-3-yl)-1,4-dihydropyrido[2,3-b]pyrazine-2,3-dione], for which the IC50 in experiment [1] is ≤ 100 nM; in experiment [2], 100 to 1000 nM. Turning to `C=CC(=O)N1CC(F)(Cn2c(=O)c(=O)n(-c3c(C(C)C)cccc3C(C)C)c3nc(-c4ccccc4F)c(Cl)cc32)C1` [Example 10, 1-((1-acryloyl-3-fluoro-azetidin-3-yl)methyl)-7-chloro-4-(2,6-diisopropylphenyl)-6-(2-fluorophenyl)-1,4-dihydropyrido[2,3-b]pyrazine-2,3-dione], the IC50 in experiment [1] was ≤ 100 nM; in experiment [2] it was 100 to 1000 nM.

On to `C=CC(=O)N1CC(Cn2c(=O)c(=O)n(-c3c(C(C)C)cccc3C(C)C)c3nc(-c4cccc(F)c4F)c(Cl)cc32)(OC)C1` [Example 9, 1-((1-acryloyl-3-methoxy-azetidin-3-yl)methyl)-7-chloro-4-(2,6-diisopropylphenyl)-6-(2,3-difluorophenyl)-1,4-dihydropyrido[2,3-b]pyrazine-2,3-dione], for which the concentration for half-maximal inhibition (IC50) in experiment [1] and in experiment [2] was 100 to 1000 nM throughout. As for `C=CC(=O)N1CC(O)(Cn2c(=O)c(=O)n(-c3c(C)ccnc3C(C)C)c3nc(-c4c(O)cc(C)cc4F)c(Cl)cc32)C1` [Example 46, 1-((1-acryloyl-3-hydroxyazetidin-3-yl)methyl)-7-chloro-6-(2-fluoro-6-hydroxy-4-methylphenyl)-4-(2-isopropyl-4-methylpyridin-3-yl)-1,4-dihydropyrido[2,3-b]pyrazine-2,3-dione], the IC50 in experiment [1] lay within 100 to 1000 nM.

Source of the values: US11767320B2, “Bicyclic dione compounds as inhibitors of KRAS” (INCYTE CORPORATION, priority 2020, dated 2023).
